US11130741B2 (Bioimics AB, priority 2016, dated 2021)
Values after ≈ are worked out from the molar mass of the structure shown. Read-outs that look alike come from different tables or passages of the source.

Experiments:
[1] = tested on: Staphylococcus aureus (ATCC25923); test: MIC, broth microdilution (CLSI), Staphylococcus aureus ATCC25923
[2] = tested on: Escherichia coli (ATCC25922); test: MIC, broth microdilution (CLSI), Escherichia coli ATCC25922
[3] = tested on: E. coli RNase P RNA, M1 RNA; test: Inhibition of bacterial RNase P activity, IC50 determination (cleavage of pATSerUG by M1 RNA); type: biochemical; conditions: NI = No inhibition
[4] = ATCC25923, read-out: S. aureus ("Clinical") MIC
[5] = ATCC25922, read-out: E. coli MIC, Table 15, NI = No inhibition

Nc1cc(C(F)(F)F)cc2c1N(CCCN1CCNCC1)c1ccccc1S2 [compound 83, 10-(3-(piperazin-1-yl)propyl)-3-(trifluoromethyl)-10H-phenothiazin-1-amine]
MIC [1, 4]: 32 µg/mL (≈ 78.3 µM)
MIC [2, 5]: > 100 µg/mL
IC50 [3]: > 100 µM

CN(C)CCCN1c2ccccc2Sc2cc(C(F)(F)F)cc(NC(N)=S)c21 [compound 87, 1-(10-(3-(Dimethylamino)propyl)-3-(trifluoromethyl)-10H-phenothiazin-1-yl)thiourea]
MIC [1, 4]: 55 µg/mL (≈ 129 µM)
MIC [2, 5]: > 100 µg/mL
IC50 [3]: > 100 µM

CN1CCN(CCCN2c3ccccc3Sc3cc(C(F)(F)F)cc(N)c32)CC1 [compound 88, 10-(3-(4-methylpiperazin-1-yl)propyl)-3-(trifluoromethyl)-10H-phenothiazin-1-amine]
MIC [1, 4]: 27 µg/mL (≈ 63.9 µM)
MIC [2, 5]: > 100 µg/mL
IC50 [3]: > 100 µM

CN(C)CCCN1c2ccccc2Sc2cc(Cl)cc(N)c21 [compound 89, 3-chloro-10-(3-(dimethylamino)propyl)-10H-phenothiazin-1-amine]
MIC [1, 4]: 85 µg/mL (≈ 255 µM)
MIC [2, 5]: > 100 µg/mL
IC50 [3]: > 100 µM

CC(N)CC(=O)Nc1cc(C(F)(F)F)cc2c1N(CCCN(C)C)c1ccccc1S2 (centres unmarked) [compound 90, 3-amino-N-(10-(3-(dimethylamino)propyl)-3-(trifluoromethyl)-10H-phenothiazin-1-yl)butanamide]
MIC [1, 4]: 64 µg/mL (≈ 141 µM)
MIC [2, 5]: > 100 µg/mL
IC50 [3]: > 100 µM

O=C(Nc1cc(C(F)(F)F)cc2c1Nc1ccccc1S2)C1CCCNC1 (centres unmarked) [compound 91, N-(3-(trifluoromethyl)-10H-phenothiazin-1-yl)piperidine-3-carboxamide]
MIC [1, 4]: 8 µg/mL (≈ 20.3 µM)
MIC [2, 5]: 32 µg/mL (≈ 81.3 µM)
IC50 [3]: > 100 µM

NC1CCC(C(=O)Nc2cc(C(F)(F)F)cc3c2Nc2ccccc2S3)CC1 (centres unmarked) [compound 95, 4-amino-N-(3-(trifluoromethyl)-10H-phenothiazin-1-yl)cyclohexane-carboxamide]
MIC [1, 4]: 32 µg/mL (≈ 78.5 µM)
MIC [2, 5]: 64 µg/mL (≈ 157 µM)
IC50 [3]: 94 µM

NCCCNc1cc(C(F)(F)F)cc2c1Nc1ccccc1S2 [compound 97, N1-(3-(trifluoromethyl)-10H-phenothiazin-1-yl)propane-1,3-diamine]
MIC [1, 4]: 4 µg/mL (≈ 11.8 µM)
MIC [2, 5]: 8 µg/mL (≈ 23.6 µM)
IC50 [3]: > 100 µM

NCCNC(=S)Nc1cc(C(F)(F)F)cc2c1Nc1ccccc1S2 [compound 98, 1-(2-aminoethyl)-3-(3-(trifluoro-methyl)-10H-phenothiazin-1-yl)thiourea]
MIC [1, 4]: 8 µg/mL (≈ 20.8 µM)
MIC [2, 5]: 16 µg/mL (≈ 41.6 µM)
IC50 [3]: > 100 µM

O=C(Nc1cc(C(F)(F)F)cc2c1Nc1ccccc1S2)[C@@H]1CCCNC1 [compound 100, (R)-N-(3-(trifluoromethyl)-10H-phenothiazin-1-yl)piperidine-3-carboxamide]
MIC [1, 4]: 16 µg/mL (≈ 40.7 µM)
MIC [2, 5]: 32 µg/mL (≈ 81.3 µM)
IC50 [3]: > 100 µM

O=C(CCN1CCNCC1)Nc1cc(C(F)(F)F)cc2c1Nc1ccccc1S2 [compound 101, 3-(piperazin-1-yl)-N-(3-(trifluoromethyl)-10H-phenothiazin-1-yl)propanamide]
MIC [1, 4]: 32 µg/mL (≈ 75.7 µM)
MIC [2, 5]: 64 µg/mL (≈ 151 µM)
IC50 [3]: > 100 µM

O=C(Nc1cc(C(F)(F)F)cc2c1Nc1ccccc1S2)[C@H]1CCCNC1 [compound 106, N-(3-(trifluoromethyl)-10H-phenothiazin-1-yl)piperidine-3-carboxamide]
MIC [1, 4]: 32 µg/mL (≈ 81.3 µM)
MIC [2, 5]: 64 µg/mL (≈ 163 µM)
IC50 [3]: > 100 µM

NC1CCC(CNc2cc(C(F)(F)F)cc3c2Nc2ccccc2S3)CC1 (centres unmarked) [compound 108, N-((4-aminocyclohexyl)methyl)-3-(trifluoromethyl)-10H-phenothiazin-1-amine]
MIC [1, 4]: 8 µg/mL (≈ 20.3 µM)
MIC [2, 5]: 32 µg/mL (≈ 81.3 µM)
IC50 [3]: > 100 µM

CN(C)CCCN1c2ccccc2Sc2cc(-c3ccccc3)ccc21 [compound 110, N,N-dimethyl-3-(3-phenyl-10H-phenothiazin-10-yl)propan-1-amine]
MIC [1, 4]: 6 µg/mL (≈ 16.6 µM)
MIC [2, 5]: > 100 µg/mL
IC50 [3]: > 100 µM

NC1CCCCC1C(=O)Nc1cc(C(F)(F)F)cc2c1Nc1ccccc1S2 (centres unmarked) [compound 113, 2-amino-N-(3-(trifluoromethyl)-10H-phenothiazin-1-yl)cyclohexane-carboxamide]
MIC [1, 4]: 7 µg/mL (≈ 17.2 µM)
MIC [2, 5]: > 100 µg/mL

O=C(CC1(O)CCC(F)(F)CC1)Nc1cc(C(F)(F)F)cc2c1Nc1ccccc1S2 [compound 115, 2-(4,4-difluoro-1-hydroxycyclo-hexyl)-N-(3-(trifluoromethyl)-10H-phenothiazin-1-yl)acetamide]
MIC [1, 4]: 7 µg/mL (≈ 15.3 µM)
MIC [2, 5]: > 100 µg/mL
IC50 [3]: > 100 µM

CN(C)CCCN1c2ccccc2Sc2cc(C3CC3)ccc21 [compound 116, 3-(3-cyclopropyl-10H-phenothiazin-10-yl)-N,N-dimethylpropan-1-amine]
MIC [1, 4]: 42 µg/mL (≈ 129 µM)
MIC [2, 5]: > 100 µg/mL
IC50 [3]: > 100 µM

CN(C)CCCN1c2ccccc2Sc2cc(-c3ccc4[nH]cnc4c3)ccc21 [compound 117, 3-(3-(1H-benzo[d]imidazol-5-yl)-10H-phenothiazin-10-yl)-N,N-dimethylpropan-1-amine]
MIC [1, 4]: 26 µg/mL (≈ 64.9 µM)
MIC [2, 5]: > 100 µg/mL
IC50 [3]: > 100 µM

N[C@H]1CCC[C@@H](C(=O)Nc2cc(C(F)(F)F)cc3c2Nc2ccccc2S3)C1 [compound 118, (1R,3S)-3-amino-N-(3-(trifluoromethyl)-10H-phenothiazin-1-yl)cyclohexane-carboxamide]
MIC [1, 4]: 13 µg/mL (≈ 31.9 µM)
MIC [2, 5]: 26 µg/mL (≈ 63.8 µM)
IC50 [3]: 17 µM

N#Cc1cc(NC(=O)C2CCCC(N)C2)c2c(c1)Sc1ccccc1N2 (centres unmarked) [compound 119, 3-amino-N-(3-cyano-10H-phenothiazin-1-yl)cyclohexane-carboxamide]
MIC [1, 4]: 93 µg/mL (≈ 255 µM)
MIC [2, 5]: > 100 µg/mL
IC50 [3]: > 100 µM

NC1CC(C(=O)Nc2cc(C(F)(F)F)cc3c2Nc2ccccc2S3)CCN1 (centres unmarked) [compound 139, 2-amino-N-(3-(trifluoromethyl)-10H-phenothiazin-1-yl)piperidine-4-carboxamide]
MIC [1, 4]: 52 µg/mL (≈ 127 µM)
MIC [2, 5]: > 100 µg/mL

CN(C)CCCN1c2ccccc2Sc2cc(-c3cc4cc(C#N)ccc4[nH]3)ccc21.O=C(O)C(F)(F)F [compound 151, 2-(10-(3-(dimethylamino)propyl)-10H-phenothiazin-3-yl)-1H-indole-5-carbonitrile 2,2,2-trifluoroacetate salt]
MIC [1, 4]: 3 µg/mL
MIC [2, 5]: > 100 µg/mL

NCCN1CCOC[C@H]1C(=O)Nc1cc(C(F)(F)F)cc2c1Nc1ccccc1S2.O=C(O)C(F)(F)F [compound 157, (S)-4-(2-aminoethyl)-N-(3-(trifluoro-methyl)-10H-phenothiazin-1-yl)morpholine-3-carboxamide 2,2,2-trifluoroacetate]
MIC [1, 4]: 71 µg/mL
MIC [2, 5]: > 100 µg/mL

NC1CCCC(CNc2cc(C(F)(F)F)cc3c2Nc2ccccc2O3)C1 (centres unmarked) [compound 164, N-((3-aminocyclohexyl)methyl)-3-(trifluoromethyl)-10H-phenoxazin-1-amine]
MIC [1, 4]: 24 µg/mL (≈ 63.6 µM)
MIC [2, 5]: 97 µg/mL (≈ 257 µM)

NC1CCCC(CC(=O)Nc2cc(C(F)(F)F)cc3c2Nc2ccccc2S3)C1.O=C(O)C(F)(F)F (centres unmarked) [compound 165, 2-(3-aminocyclohexyl)-N-(3-(trifluoromethyl)-10H-phenothiazin-1-yl)acetamide 2,2,2-trifluoroacetate]
MIC [1, 4]: 17 µg/mL
MIC [2, 5]: 34 µg/mL

NCC(CCl)Nc1cc(C(F)(F)F)cc2c1Nc1ccccc1S2 (centres unmarked) [compound 178, 3-chloro-N2-(3-(trifluoromethyl)-10H-phenothiazin-1-yl)propane-1,2-diamine]
MIC ([1]; ATCC25923, read-out: S. aureus ("Clinical") MIC, Table 15): 6 µg/mL (≈ 16.1 µM)
MIC ([2]; ATCC25922, read-out: E. coli MIC): 48 µg/mL (≈ 128 µM)

NCCC1CCC(CNc2cc(C(F)(F)F)cc3c2Nc2ccccc2S3)CC1 (centres unmarked) [compound 179, N-((4-(2-aminoethyl)cyclohexyl)methyl)-3-(trifluoromethyl)-10H-phenothiazin-1-amine]
MIC [1, 4]: 3 µg/mL (≈ 7.12 µM)
MIC [2, 5]: 12 µg/mL (≈ 28.5 µM)

Nc1cc(C(F)(F)F)cc2c1Nc1ccc(-c3cc4ccccc4[nH]3)cc1S2 [compound 205, 7-(1H-indol-2-yl)-3-(trifluoromethyl)-10H-phenothiazin-1-amine]
MIC [1, 4]: 25 µg/mL (≈ 62.9 µM)
IC50 [3]: 364 µM

NCCN1c2ccccc2Sc2cc(-c3cc4ccccc4[nH]3)ccc21 [compound 213, 2-(3-(1H-indol-2-yl)-10H-phenothiazin-10-yl)ethanamine]
MIC [1, 4]: 3 µg/mL (≈ 8.39 µM)
MIC [2, 5]: 23 µg/mL (≈ 64.3 µM)

NCCNCCN1CCC(Nc2cc(C(F)(F)F)cc3c2Nc2ccccc2S3)CC1 [compound 219, N1-(2-(4-((3-(trifluoromethyl)-10H-phenothiazin-1-yl)amino)piperidin-1-yl)ethyl)ethane-1,2-diamine]
MIC [1, 4]: 7 µg/mL (≈ 15.5 µM)
MIC [2, 5]: 14 µg/mL (≈ 31 µM)

NCCN1CCC(Nc2cc(C(F)(F)F)cc3c2Nc2ccccc2S3)C1 (centres unmarked) [compound 228, N-(1-(2-aminoethyl)pyrrolidin-3-yl)-3-(trifluoromethyl)-10H-phenothiazin-1-amine]
MIC [1, 4]: 6 µg/mL (≈ 15.2 µM)
MIC [2, 5]: 13 µg/mL (≈ 33 µM)

CN(C)CCCN1c2ccc(-c3cc4ccccc4[nH]3)cc2Sc2cc([N+](=O)[O-])ccc21 [compound 241, 3-(3-(1H-indol-2-yl)-7-nitro-10H-phenothiazin-10-yl)-N,N-dimethylpropan-1-amine]
MIC [1, 4]: 4 µg/mL (≈ 9 µM)

FC(F)(F)c1cc(NC2CCNCC2)c2c(c1)Sc1cc(-c3cc4ccccc4[nH]3)ccc1N2 [compound 243, 7-(1H-indol-2-yl)-N-(piperidin-4-yl)-3-(trifluoromethyl)-10H-phenothiazin-1-amine]
MIC [1, 4]: 15 µg/mL (≈ 31.2 µM)
IC50 [3]: 39 µM

NC(Cc1c[nH]c2ccccc12)C(=O)Nc1cc(C(F)(F)F)cc2c1Nc1ccccc1S2 (centres unmarked) [compound 253, 2-amino-3-(1H-indol-3-yl)-N-(3-(trifluoromethyl)-10H-phenothiazin-1-yl)propanamide]
MIC [1, 4]: 2 µg/mL (≈ 4.27 µM)

COc1ccc2c(c1)Sc1cc(-c3cc4ccccc4[nH]3)ccc1N2CCCN(C)C [compound 254, 3-(3-(1H-indol-2-yl)-7-methoxy-10H-phenothiazin-10-yl)-N,N-dimethylpropan-1-amine]
MIC [1, 4]: 2 µg/mL (≈ 4.66 µM)
